Reference: PMC11165727, “Improvement effects of a novel Chinese herbal formula in imiquimod and IL-23-stimulated mouse models of psoriasis” (Chinese Medicine, 2024)

Experiments:
[1] = tested on: IMQ-induced mouse psoriasis model; experiment: IMQ-induced mouse psoriasis model: body weight, dorsal skin thickness, PASI, epidermal thickness; assay type: in vivo, Balb/c mice
Description: (§1) A total of 48 Balb/c mice were randomly assigned to: (a) normal control group (NC); (b) IMQ group; (c) IMQ plus dexamethasone (DXM, as the positive control, 3 mg/kg) group; and (d-f) IMQ plus ISDF (3.15, 6.30 and 9.45 g/kg) groups. All mice, except the NC group, were topically dosed with 62.5 mg Aldara (iNova pharmaceuticals, Australia) daily on the shaved dorsal skin. After the seven-day sensitization of IMQ, the psoriasis symptoms appeared on the dorsal area. Between day 8 and day 22, Aldara cream was applied once every three days for a total of six applications, with each application consisting of 62.5 mg of the cream being applied to the same area. ISDF and DXM were suspended in 0.5% CMC-Na and orally given to the mice once daily for two weeks. Treatments were initiated seven days after the first IMQ sensitization. The mice in the NC group and the IMQ group were administered with only the vehicle for two weeks. (Fig. 1A).
(§2) The severity of psoriatic lesions on the dorsal area of mice was assessed by psoriasis area and severity index (PASI). The researcher scored the degree of erythema and skin scaling on a scale of zero to four, where 0: no symptoms, 1: slight, 2: moderate, 3: severe, and 4: very severe. The dorsal skin thickness was measured using an electronic vernier caliper which was placed on the middle line of the dorsal area.
(§3) The dorsal skin tissues were harvested and fixed in 4% paraformaldehyde (PFA) for one day and then embedded in paraffin, followed by section, deparaffinization and rehydration. Five-micrometre sections of dorsal skin were stained with hematoxylin & eosin and observed through a light microscope (Zeiss AxioObserver Z1, Germany) to assess histopathological changes.

[2] = tested on: IL-17A, IL-22, IL-6, IL-4; experiment: ELISA of inflammatory cytokines in serum and dorsal skin of IMQ-induced mice; assay type: in vivo, Balb/c mice; settings: IMQ model; DXM 3 mg/kg oral; vs IMQ group
Description: as §1
(§4) After the last drug treatment, blood samples were harvested and stored at room temperature for one hour, and then centrifuged at 3500 rpm for 20 min. The ELISA kits were used to collect the supernatant and determine the contents of IL-17A (ab199081), IL-22 (ab223857), IL-6 (ab222503) (Abcam, USA) and IL-23 (BMS6017, Thermo Fisher Scientific, USA). After being sacrificed, mouse skin tissues were collected, homogenized with cell extract buffer from Abcam, USA, and centrifuged at 12,000 rpm for 30 min (at 4 °C). The skin samples were analyzed for total protein contents using a […] assay kit. The concentrations of IL-4, IL-17A, IL-22 and IL-23 in the supernatant were determined.

[3] = tested on: gene expression of IL-4, IL-6, IL-1β and TNF-α; experiment: Real-time PCR on dorsal skin tissues of IMQ-induced mice; assay type: in vivo, Balb/c mice; settings: IMQ model; DXM 3 mg/kg oral
Description: as §1
The same experimental procedure was used as described in our previous study. In the present study, we conducted Mouse TaqMan gene expression assays using the following assay IDs: IL-4 (Mm00445259_m1), IL-6 (Mm00446190_m1), IL-1β (Mm00434228_m1), TNF-α (Mm00443258_m1) and β-actin (Mm02619580_g1).

[4] = tested on: IL-23-induced mouse psoriasis model; experiment: IL-23-induced mouse psoriasis model: body weight, dorsal skin thickness, PASI, epidermal thickness; assay type: in vivo, C57 mice; settings: IL-23 model, DXM 3 mg/kg oral
Description: (§5) A total of 48 C57 mice were randomly assigned to: (a) NC group; (b) IL-23 group; (c) IL-23 plus DXM (3 mg/kg) group; and (d–f) IL-23 plus ISDF (3.15, 6.30 and 9.45 g/kg) groups. Firstly, mice were pre-treated with ISDF or DXM before IL-23 injection. 0.5% CMC-Na was used to suspend ISDF and DXM which were orally given to mice once daily for two weeks, and the mice in the NC group and the IL-23 group were treated with only the vehicle for two weeks. The IL-23 administration was initiated 7 days post the first ISDF/DXM treatment. From day 8, mice concurrently orally received with ISDF/DXM treatment and intradermal injections of recombinant mouse IL-23 (Biolegend, USA) in two locations on the shaved dorsal skin at 1 μg/mouse/day using a 30-gauge needle for seven days. Sterile saline was used as the vehicle control for the NC group. After the seven-day sensitization of IL-23, the psoriasis symptoms appeared on the dorsal area of the mice. The weight of the mice and their dorsal skin thickness was monitored (on day 1, 7, and 14). On the last day, the scoring of the skin psoriasis severity was determined according to PASI after the last drug treatment (Fig. 2A).
as §2, §3

IL-17A, IL-22, IL-23 = experiment: ELISA of cytokines in serum and injected skin of IL-23-induced mice; assay type: in vivo, C57 mice; settings: IL-23 model; DXM 3 mg/kg oral; vs IL-23 group
Description: as §5, §4

[5] = Pharmacokinetics of ISDF in rats: berberine in erythrocytes; assay type: in vivo, Sprague–Dawley rats; settings: oral ISDF 18.90 g/kg
Description: The rats were split into two groups, with 6 animals each: (a) an untreated control group, and (b) a group that received ISDF at a dosage of 18.90 g/kg. The rats were fasted overnight but had access to distilled water. Blood samples, around 0.4 mL, were harvested from the orbital bleeding while they were under anaesthesia with isoflurane. The blood samples were collected at several time points (5, 15, 30, 60, 120, 240, 480, and 1440 min) after the oral administration of ISDF to the rats. The blood was then centrifuged at 5000 rpm for 20 min (at 4 °C) to separate the plasma (upper) and blood cells (lower). The blood cells were washed thrice with cold 0.9% saline, and then centrifuged at 3500 rpm for five min. The resulting erythrocytes were suspended in cold 0.9% saline (0.5 mL). Afterwards, the erythrocytes were mixed with an equal volume of 15% hydrochloric acid and heated at 60 ℃ for 6 h. They were then centrifugated at 12,000 rpm for 10 min to collect the supernatant, which was filtered and dried under nitrogen. Finally, it was re-dissolved with 0.2 mL methanol. The HPLC method was used to identify and quantify baicalin in plasma and berberine in erythrocytes, as previously published. All the data were shown as mean ± SEM. One-way ANOVA followed by the Bonferroni test was performed using GraphPad Prism v9.0. Statistical significance between experimental groups was considered when p < 0.05. The pharmacokinetics profile of ISDF was calculated using Drug and Statistics (DAS, China) software v2.0.

[6] = Pharmacokinetics of ISDF in rats: baicalin in plasma; assay type: in vivo, Sprague–Dawley rats; settings: oral ISDF 18.90 g/kg
Description: The rats were split into two groups, with 6 animals each: (a) an untreated control group, and (b) a group that received ISDF at a dosage of 18.90 g/kg. The rats were fasted overnight but had access to distilled water. Blood samples, around 0.4 mL, were harvested from the orbital bleeding while they were under anaesthesia with isoflurane. The blood samples were collected at several time points (5, 15, 30, 60, 120, 240, 480, and 1440 min) after the oral administration of ISDF to the rats. The blood was then centrifuged at 5000 rpm for 20 min (at 4 °C) to separate the plasma (upper) and blood cells (lower). The plasma (0.2 mL) was added with […] KH2PO4 (0.2 mL) and 1 mL methanol and acetonitrile (1:1) and vortexed for 10 min to precipitate protein, and then centrifugated at 10,000 rpm for five min to collect the supernatant. The supernatant was filtered, dried under nitrogen and then re-dissolved in methanol (0.2 mL) and stored at 4 °C [18]. The HPLC method was used to identify and quantify baicalin in plasma and berberine in erythrocytes, as previously published. All the data were shown as mean ± SEM. One-way ANOVA followed by the Bonferroni test was performed using GraphPad Prism v9.0. Statistical significance between experimental groups was considered when p < 0.05. The pharmacokinetics profile of ISDF was calculated using Drug and Statistics (DAS, China) software v2.0.

[7] = Sprague-Dawley, rat, 18.9 g/kg, read-out: Area under the curve (AUC0-∞)
[8] = Sprague-Dawley, rat, 18.9 g/kg, read-out: Mean residence time (MRT0-t)
[9] = Sprague-Dawley, rat, 18.9 g/kg, read-out: The maximum concentration (Cmax)

Question: What does the source list for `C[C@@H]1C[C@H]2[C@@H]3CCC4=CC(=O)C=C[C@]4(C)[C@@]3(F)[C@@H](O)C[C@]2(C)[C@@]1(O)C(=O)CO` [DXM, dexamethasone]?
Answer: Body weight ([1]; DXM 3 mg/kg oral once daily, days 14 and 21, vs NC group): remarkable decrease; Decrease in PASI score ([1]; DXM 3 mg/kg oral, day 21, vs IMQ group): 79.41%; Reduction of dorsal skin thickness ([1]; DXM 3 mg/kg oral, two-week treatment, vs IMQ group): 51.69%; Decrease of epidermal thickness ([1]; DXM 3 mg/kg oral, vs IMQ group): 52.75%; Decrease of serum IL-17A [2]: 91.29%; Reduction of IL-17A content in dorsal skin [2]: 75.98%; Reduction of serum IL-6 [2]: 88.91%; Reduction of serum IL-22 [2]: 67.47%; Gene expression of IL-4, IL-6, IL-1β and TNF-α in skin [3]: substantially down-regulate; Body weight [4]: significantly induced a body weight reduction; Decrease of dorsal skin thickness ([4]; day 14, vs IL-23 group): 55.14%; Reduction of PASI score ([4]; day 14, vs IL-23 group): 85.24%; Decrease of epidermal thickness ([4]; vs IL-23 group): 72.26%; Decrease of IL-23 level in the injected skin (IL-17A, IL-22, IL-23): 43.34%; Reduction of serum IL-17A (IL-17A, IL-22, IL-23): 62.20%; Reduction of serum IL-22 content (IL-17A, IL-22, IL-23): 39.12%

Question: For `COc1ccc2cc3[n+](cc2c1OC)CCc1cc2c(cc1-3)OCO2` [Berberine, berberine], which AUC(0-inf) [5, 7] is on record?
Answer: 24200 ± 17400 ng·h/mL

Question: And the MRT last [5, 8]?
Answer: 9.24 ± 1.31 h

Question: And the Cmax [5, 9]?
Answer: 1440 ± 710 ng/mL

Question: What about the “The time required for drug concentration to decrease by 50% (t1/2)” value [5] of the same molecule?
Answer: 10.77 ± 5.80 h

Question: And the “Time to reach Cmax (Tmax)” value [5]?
Answer: 2.33 ± 1.52 h

Question: For `O=C(O)[C@H]1O[C@@H](Oc2cc3oc(-c4ccccc4)cc(=O)c3c(O)c2O)[C@H](O)[C@@H](O)[C@@H]1O` [Baicalin, baicalin], which AUC(0-inf) [6, 7] is on record?
Answer: 10000 ± 810 ng·h/mL

Question: What about the MRT last [6, 8] of the same molecule?
Answer: 7.98 ± 0.61 h

Question: What about the Cmax [6, 9] of the same molecule?
Answer: 670 ± 60 ng/mL

Question: What about the “The time required for drug concentration to decrease by 50% (t1/2)” value [6] of the same molecule?
Answer: 14.06 ± 3.25 h

Question: And the “Time to reach Cmax (Tmax)” value [6]?
Answer: 2.01 ± 0.28 h
